Experimental data taken from patent US10188651B2, “Methods of treating sleep disorders” (Melior Pharmaceuticals II, LLC, priority 2013, dated 2019).

How the values were obtained:
[1] = test system: 6-OHDA unilaterally lesioned Sprague-Dawley rats; test: Abnormal involuntary movements (AIMs) test, Examples 1 and 2; conditions: for effect of test drug on L-dopa-induced AIMs (dyskinesia): L-dopa day 1 (50 mg/kg), L-dopa and test drug day 2; for abnormal involuntary movements (AIMs) score compared to vehicle-treated rats: once daily, scored 60 min after injection, L-dopa 6 mg/kg for 5 days, Sydnocarb 10 and 30 mg/kg, no combination
Description: Female, Sprague-Dawley rats (Charles River Laboratories) at 7 to 8 weeks of age were used. Animals were assigned randomly to treatment groups. The diet consisted of standard rodent chow and water ad libitum.
6-OHDA was formulated at 5 mg/ml solution in 0.03% ascorbic acid in sterile 0.9% NaCl. Three μL of 6-OHDA was injected into the median forebrain bundle at the following stereotaxic coordinates from bregma: Anteroposterior (A/P) −4.0 mm; mediolateral (M/L) −1.3 mm; ventrodorsal (V/D) −8.0 mm with reference to the top of the skull.
After lesion, rats were allowed to recover for two weeks and then tested for amphetamine-induced rotational activity. Animals were treated with 25 mg/kg amphetamine in saline and recorded in an open-field chamber for 90 minutes. Only rats rotating greater than 4 times per minute were used in efficacy studies. After an additional one week, rats were treated with L-dopa (Isotec IY0630) at various times and measured for the appearance of abnormal involuntary movements (AIMs).
The AIMs test was carried out as follows: 1) weigh rat and inject with L-dopa/benserazide (10 ml/kg, ip); may be a single injection per day over multiple days; administration of a test compound or reference compound may also be included; 2) place rat in empty cage, start video recording; 3) AIMs were assessed in four areas: a) onset of symptoms-latency (seconds) to first visual AIM as defined below; b) 30 minute AIM score; c) 60 minute AIM score; and d) number of left rotations from 30-60 minutes; 4) AIMs were scored and recorded on a scale from 0 to 4: i) absent; ii) slight left forelimb dystonia with grooming; iii) excessive left forelimb dystonia with grooming; iv) left forelimb dystonia with left circling; and v) continuous left circling with or without grooming; 5) record any unusual clinical signs; and 6) after 60 minutes, stop recording, place rat back into home cage.
Sixty minutes after injection, abnormal involuntary movements (AIMs) were scored.
Rats receiving a unilateral 6-OHDA lesion as described above were treated with L-dopa (day 1, 50 mg/kg) and then L-dopa and test drug (day 2, Sydnocarb or Tesofensine).

[2] = test system: C57Bl/6 mice treated with MPTP; test: Open Field Activity assay after MPTP; assay type: in vivo, mouse; conditions: compound 30 min prior to MPTP (3x20 mg/kg) and daily for 4 days; measured day 5, 30 min open field
Description: An Open Field Activity assay was performed in which locomotor and sensorimotor parameters were evaluated in an automated open-field apparatus. 1-methyl-4-phenyl-1,2,3,6-tetrahydropyridine (MPTP) injections (3×20 mg/kg) were performed in C57Bl/6 mice at two-hour intervals (final dose of MPTP=60 mg/kg). Mice were treated with the compound 30 minutes prior to MPTP and daily for 4 days. Locomotor activity was monitored on day 5, thirty minutes after administration of test compound. Locomotor activity was measured in an automated open-field (MedAssociates) for 30 minutes. The following parameters were measured: 1) horizontal distance traveled, 2) number of rearing events and 3) stereotypic behavior.

DA transporter (DAT) = DA transporter (DAT) (Homo sapiens, UniProt Q01959); conditions: Gruner et al. 2011; cited from earlier work
extracellular DA = conditions: rat striatum and nucleus accumbens; cited from earlier work
[3] = Gruner et al. 2011; cited from earlier work
noradrenaline reuptake = conditions: rat synaptosomes; Erdö et al. 1981; cited from earlier work
[4] = test system: unilaterally lesioned 6-OHDA rats; test: Axial, limb and orolingual (ALO) AIMs rating, chronic dosing
Description: L-dopa was administered at a dose level of 12 mg/kg (ip) along with benserazide (ip; 4 mg/kg). Sydnocarb (10 or 30 mg/kg, ip), amantadine (40 mg/kg ip), or vehicle was administered 30 minutes prior to L-dopa/benserazide. As a “priming” step, L-dopa was administered daily by itself for 1 week after the amphetamine rotation wash-out period. Subsequently, Sydnocarb, along with L-dopa, was dosed daily for an additional 12 days.
After treatment, rats were placed in a confined chamber and monitored for axial, limb, and orolingual AIMs every 20-30 minutes for 2 hours as follows:
For the first minute, AIMs were assessed in three areas: • a. Axial: dystonic posturing of the neck and torso in a twisted manner directed toward the side of the body contralateral to the lesion; • b. Forelimb: rapid, purposeless movements of the forelimb located on the side of the body contralateral to the lesion; and; • c. Orolingual: repetitive openings and closings of the jaw and tongue protrusions occurring at times when the rats are not chewing or knowing on food or other objects.
AIMs were scored and recorded on a scale from 0 to 4: • 0=not present; • 1=present for less than 50% of the Observation period; • 2=present for 50% or more of the observation period; • 3=present for the entire observation period but interrupted by a loud stimulus (a tap on the cage); and • 4=present for the entire observation period and not interrupted by a loud stimulus.
For the second minute, contralateral rotations, defined as complete 360 turns away from the lesioned side of the brain, were tallied.
Ipsilateral rotations were counted as negative numbers and thus, deducted from the total contralateral rotations.
For each AIMs subcategory, the scores were summed for the entire testing period.
After an additional one week, baseline AIMs were measured and rats were treated with L-dopa at 12 mg/kg and Sydnocarb at 10 and 30 mg/kg (ip) for 12 days. On days 1, 8, 10, and 12, AIMs were scored every 20 minutes for 2 hours and graphed as a sum of axial, limb, and orolingual (ALO) abnormal movements (FIG. 6).
Sydnocarb was administered at 3 mg/kg (ip) to 6-OHDA-lesioned rats once per day for 12 days.
Sprague-Dawley rats (3/group) were injected unilaterally with 6-OHDA as described herein. Two weeks later, rats were tested for amphetamine-induced rotation activity to verify the dopaminergic lesion. After an additional six weeks, baseline AIMs were measured and rats were treated with Sydnocarb at 3 mg/kg (ip) for 12 days. No L-dopa was administered in this experiment. On days 5 and 12, AIMs were scored at 30, 90, and 150 minutes post-dose and graphed as a sum of axial, limb, and orolingual (ALO) abnormal movements (FIG. 11).

[5] = equimolar doses, cited from earlier work
[6] = humans and animals; cited from earlier work
6-OHDA-lesioned rats = test: Forelimb adjusting step (FAS) test; assay type: in vivo, rat
Description: In 6-OHDA-lesioned rats, L-dopa administration also elicits a therapeutically beneficial anti-akinetic activity that can be measured by the forelimb adjusting step (FAS) test. To determine the effect of Sydnocarb on L-dopa efficacy on this motor function, 6-OHDA-lesioned rats were treated with L-dopa in combination with Sydnocarb at 10 mg/kg and assessed by the FAS test (see, FIG. 3).
For three consecutive days, the experimenter that performed the study handled the rats so they were familiar with the experimenter's grip: the rat was held with one hand fixing the hindlimbs and slightly raising the hind part above the surface; the other hand fixed the forelimb not to be monitored; the forelimb to be monitored was touching the table; the animal was moved slowly sideways (approx. 5 sec for 90 cm), first in the forehand and then in the backhand; and these steps were repeated for the other forelimb. Forehand is defined as compensating movement toward the body and backhand is defined as compensating movement away from the body.
Each stepping test consisted of six trials for each forepaw, alternating between directions both forehand and backhand as follows: the rat was held in the same position as described above with one paw touching the table; the rat was moved slowly sideways (approx 5 sec for 90 cm), first in the forehand and then in the backhand; the number of adjusting steps for both paws in the forehand and back hand directions of movement were counted and recorded; and the sequence of testing was left paw forehand and backhand adjusting stepping, followed by right paw backhand and forehand directions. The rat was returned to its home cage and the sequence repeated with the second rat in the cage. Five more trials were performed for each rat, placing the rats back in their home cage between trials.
This portion of the experiment was run 3-4 weeks post 6-OHDA lesion, and at least 1 week post rotations testing as follows: prior to the start of dosing, rats were trained and baselines performed as above; preparation of L-dopa with benserazide (concentrations are for i.p. injection, 10 ml/kg): a) L-dopa dissolved in saline at 1.2 mg/ml; and b) benserazide dissolved in saline at 0.4 mg/ml; preparation of sydnocarb 10 mg/kg (concentrations are for i.p. injection, 10 ml/kg): a) sydnocarb dissolved in 0.5% methylcellulose, 0.2% tween 80 in dH2O at 1 mg/ml.
Rats were weighed and injected with L-dopa/benserazide (12 mg/kg/4 mg/kg). FAS were run approximately 60 minutes post L-dopa/benserazide dose. Rats were returned to home cage.
Rats were weighed and injected with sydnocarb 10 mg/kg or vehicle (0.5% methylcellulose, 0.2% tween 80 in dH2O), 30 minutes prior to L-dopa/benserazide dosing. The rest of the study was continued as described in Day 1.
Data were represented as percent by summing steps (forward and backhand) of the lesioned forelimb and dividing by the sum of the steps of the intact forelimb and multiplying by 100, giving a measure of the degree of forepaw disability. A similar calculation was obtained for percent of lesioned forelimb, giving a measure of gain of function.
Sprague-Dawley rats (6/group) were injected unilaterally with 6-OHDA as described above. […] Forepaw adjusting steps were scored and graphed as a percent of the intact (unaffected) forelimb. […] (**p<0.01, p=0.058, One-way ANOVA with post-hoc t-test compared to veh+veh). […] Moreover, Sydnocarb may allow the use of lower therapeutic doses of L-dopa, thereby reducing potential L-dopa-induced side effects.
L-dopa was administered at a dose level of 6 mg/kg (ip) along with benserazide (ip; 2 mg/kg). […] For these 6 mg/kg L-dopa studies, rats were combined from two previous L-dopa/Sydnocarb studies and allowed a 3-week wash out period.
After an additional one week, baseline FAS was measured and rats were treated with L-dopa at 6 mg/kg and Sydnocarb at 3 and 10 mg/kg (ip) for 12 days. […]

[7] = humans; cited from earlier work
C57Bl/6 mice = test: Mouse electroencephalogram, time awake; assay type: in vivo; conditions: intraperitoneal injection 4 hours after lights-on
Description: Electroencephalographic data were obtained in C57Bl/6 mice chronically implanted with electrodes to monitor brain and muscular activity. The percent time spent awake was evaluated following intraperitoneal injections of Sydnocarb 4 hours after lights-on, when mice are predominantly sleeping.

[8] = L-dopa 12 mg/kg and Sydnocarb 10 mg/kg ip (day 2)

DA transporter (DAT), sequence (Q01959 whole entry, species assumed): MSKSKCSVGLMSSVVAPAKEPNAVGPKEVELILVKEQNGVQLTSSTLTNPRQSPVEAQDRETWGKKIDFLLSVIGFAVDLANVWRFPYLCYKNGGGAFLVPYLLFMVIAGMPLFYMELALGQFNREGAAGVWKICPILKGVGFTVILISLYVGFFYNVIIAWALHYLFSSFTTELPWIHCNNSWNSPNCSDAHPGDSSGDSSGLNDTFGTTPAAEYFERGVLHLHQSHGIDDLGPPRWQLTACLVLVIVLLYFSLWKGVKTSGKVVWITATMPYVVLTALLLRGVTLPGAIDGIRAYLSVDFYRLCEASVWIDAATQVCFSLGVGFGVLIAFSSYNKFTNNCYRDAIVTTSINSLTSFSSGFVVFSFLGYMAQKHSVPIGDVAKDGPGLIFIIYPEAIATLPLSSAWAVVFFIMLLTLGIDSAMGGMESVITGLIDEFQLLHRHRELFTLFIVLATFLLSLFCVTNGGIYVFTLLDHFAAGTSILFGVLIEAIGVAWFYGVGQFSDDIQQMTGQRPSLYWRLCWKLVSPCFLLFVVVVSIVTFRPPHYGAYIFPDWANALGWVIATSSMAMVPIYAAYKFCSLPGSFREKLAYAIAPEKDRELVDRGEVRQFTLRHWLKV

CCOC[C@@H]1[C@@H](c2ccc(Cl)c(Cl)c2)C[C@@H]2CC[C@H]1N2C [Tesofensine]
effect of test drug on L-dopa-induced AIMs (dyskinesia) [1]: had no affect on AIMs
vertical activity (rearing events) [2]: prevent decrease in vertical activity

CC(Cc1ccccc1)[n+]1cc([N-]C(=O)Nc2ccccc2)on1 (stereo not drawn) [Sydnocarb, 3-(β-phenylisopropyl)-N-phenylcarbamoylsydnonimine]
effect of test drug on L-dopa-induced AIMs (dyskinesia) [1]: ameliorates L-dopa-induced dyskinesia
reduction of L-dopa-induced AIMs ([1]; Sydnocarb administered 30 min after L-dopa, seen 30 and 60 minutes after L-dopa administration): approximately 40%
abnormal involuntary movements (AIMs) score compared to vehicle-treated rats [1]: did not cause significant AIMs
vertical activity (rearing events) [2]: prevent decrease in vertical activity
DAT activity (DA transporter (DAT)): has DAT activity
extracellular DA increase compared with D-AMPH (extracellular DA): slower and more gradual increase in extracellular DA
rebound hypersomnolence [3]: lacks the rebound hypersomnolence
noradrenaline reuptake (noradrenaline reuptake): attenuates noradrenaline reuptake
sum of ALO AIMs compared to vehicle ([4]; L-dopa 12 mg/kg and Sydnocarb 10 and 30 mg/kg ip for 12 days, days 1, 8, 10, 12): decrease in AIMs compared to vehicle
sum of ALO AIMs compared to vehicle ([4]; L-dopa 12 mg/kg and Sydnocarb 10 and 30 mg/kg po for 12 days, days 5 and 12): decrease in AIMs compared to vehicle
AIMs scores relative to L-dopa treatment ([4]; Sydnocarb 3 mg/kg ip for 12 days, no L-dopa): approximately 20 times lower
sum of ALO AIMs, Sydnocarb alone ([4]; Sydnocarb 3 mg/kg ip for 12 days, no L-dopa, days 5 and 12): nominal AIMs
markers of neurotoxicity relative to D-AMPH ([5]; DA depletion, reactive oxygen species, lipid peroxidation): smaller changes in the markers of neurotoxicity
hyperlocomotion and stereotypy relative to D-AMPH [5]: less hyperlocomotion and stereotypy
metabolite formed [6]: metabolized to D-amphetamine
FAS adjusting steps compared to vehicle (6-OHDA-lesioned rats; L-dopa 6 mg/kg and Sydnocarb 3 mg/kg ip for 12 days, days 5 and 12): increase in adjusting steps compared to vehicle
FAS adjusting steps compared to vehicle (L-dopa alone) (6-OHDA-lesioned rats; L-dopa 6 mg/kg and Sydnocarb 10 mg/kg po for 12 days, day 12, 60 min post-dose): slight increase, and importantly no decrease, in adjusting steps
forepaw adjusting steps as percent of the intact forelimb (6-OHDA-lesioned rats; [8]): ~100%
forepaw adjusting steps, percent of the intact forelimb, compared to vehicle (6-OHDA-lesioned rats; [8]): significant increase
adjusting step scores compared to L-dopa alone (6-OHDA-lesioned rats; Sydnocarb 10 mg/kg with L-dopa): increased scores compared to L-dopa alone
toxic episodes and abuse potential [7]: neither significant toxic episodes nor abuse potential have been reported
percent time spent awake compared to vehicle controls (C57Bl/6 mice): dose-dependently increased time awake

N[C@@H](Cc1ccc(O)c(O)c1)C(=O)O [L-dopa]
abnormal involuntary movements (AIMs) score compared to vehicle-treated rats [1]: significantly higher AIMs scores
abnormal involuntary movements (AIMs) caused by L-dopa ([1]; two-day treatment with L-dopa, 50 mg/kg): increase in abnormal involuntary movements
sum of ALO AIMs compared to baseline ([4]; L-dopa 12 mg/kg ip with benserazide, chronic dosing): increase in AIMS compared to baseline
FAS, % affected paw compared to baseline (6-OHDA-lesioned rats; L-dopa 6 mg/kg ip alone, 12 days): slight increase in adjusting steps compared to baseline
forepaw adjusting steps, percent of the intact forelimb, compared to vehicle (6-OHDA-lesioned rats; L-dopa 12 mg/kg alone): slight increase in steps compared to vehicle
